{"source": "patent US11779532B2", "about": "“Topical compositions and methods” (Mary Kay Inc., priority 2020, dated 2023)", "tested_on": "MELANODERM™ MEL-300B tissue constructs", "test": "Overall Melanin Level Assay (MELANODERM skin analog, Solvable Melanin Assay)", "assay_type": "cell-based, human", "conditions": "for Absorbance (relative melanin content): MEL-300B tissue (donors with black complexion), 25 μl applied every other day for 10 days, read at 490 nm, 2% kojic acid solution, 0.4% hydroquinone solution, formulation of Table 1, untreated control 0.927", "protocol": "This bioassay was used to analyze the effect of compounds on melanogenesis. […] The endpoint of this assay was spectrophotometric measurement of melanin production and cellular viability of tissue constructs derived from donors. The skin lightening efficacy of the formulation in Table 1 was evaluated using a skin analog sold by MatTek Corp. under the tradename MELANODERM™. Tissue constructs derived from donors with a black complexion (MELANODERM™ MEL-300B) were used. Tissue constructs derived from people with a black complexion have melanocytes with increased pigmentation versus those of people with a white or brown complexion melanocytes. MEL-300B tissue inserts were placed into the wells of 12-well plates filled with maintenance medium and pre-equilibrated in a humidified 37° C., 5% CO2 incubator overnight prior to applying treatment. After removal of the pre-equilibration medium, 25 μl of the formulation of Table 1 was applied directly to the MEL-300B stratum corneum by pipetting with a positive displacement pipette into the cell culture insert which contained the MEL-300B tissue inserts. Treatments were done in triplicates. 25 μl of 2% Kojic Acid (KA) solution and 25 μl of 0.4% Hydroquinone (HQ) solution were used as positive controls and 25 μl of sterile ultrapure water served as negative control. The MEL-300B tissue inserts were treated every other day for 10 consecutive days. Maintenance medium was replaced every other day with fresh medium. After treatment, the MEL-300B tissue inserts were submerged in phosphate buffered saline (PBS) for 10 minutes to remove any residual phenol red and test article from the tissue. After the MEL-300B tissue inserts were rinsed off, viability was measured on one of the tissues using the MTT viability assay (MTT Kit part #: MTT-100). The relative melanin content was measured using the Solvable Melanin Assay. Briefly, the tissues were removed from the inserts using fine-point forceps. Each tissue was blotted dry and placed in a 1.7 ml microfuge tube. […] Absorbance of the plate was read at 490 nm."}
{"smiles": "O=c1cc(CO)occ1O", "note": "[Kojick Acid, Kojic Acid]", "values": [{"measurement": "Absorbance (relative melanin content)", "value": 0.629}]}
{"smiles": "Oc1ccc(O)cc1", "note": "[Hydroquinone]", "values": [{"measurement": "effect on melanin compared to untreated control / positive control (in words)", "setting": "MEL-300B tissue (dark skin model), topical application", "value": "increase melanin compared to the untreated control"}, {"measurement": "Absorbance (relative melanin content)", "value": 1.222}]}
